Measurements taken from ChEMBL document CHEMBL2046413, “Iridoid glucosides and a C₁₃-norisoprenoid from Lamiophlomis rotata and their effects on NF-κB activation” (Bioorg Med Chem Lett, 2012).

How the values were obtained:
HEK293 [1] = experiment: Inhibition of LPS-induced NF-KB transcriptional activity expressed in HEK-293 cells at 100 ug/ml after 4 hrs by luciferase reporter gene assay relative to LPS-treated group; format: cell-based
HEK293 [2] = experiment: Inhibition of LPS-induced NF-KB transcriptional activity expressed in HEK-293 cells at 1 ug/ml after 4 hrs by luciferase reporter gene assay relative to LPS-treated group; format: cell-based
HEK293 [3] = experiment: Inhibition of LPS-induced NF-KB transcriptional activity expressed in HEK-293 cells at 10 ug/ml after 4 hrs by luciferase reporter gene assay relative to LPS-treated group; format: cell-based
HEK293 [4] = experiment: Inhibition of NF-KB production in human HEK293 cells by BCA protein assay; format: functional, cell-based

`COC(=O)C1=CO[C@@H](O[C@@H]2O[C@H](CO)[C@@H](O)[C@H](O)[C@H]2O)[C@@H]2[C@@](C)(O)[C@H](O)[C@@H](O)[C@]12O` gave an NF-κB luciferase activity relative to LPS-treated group (HEK293 [1]) of 0.31, an NF-κB luciferase activity relative to LPS-treated group (HEK293 [2]) of 0.18 and an RLU (HEK293 [3]) of 0.34.

`COC(=O)C1=CO[C@@H](O[C@@H]2O[C@H](CO)[C@@H](O)[C@H](O)[C@H]2O)[C@H]2[C@@H]1[C@H](O)[C@@H](Cl)[C@]2(C)O` showed an NF-κB luciferase activity relative to LPS-treated group (HEK293 [1]) of 0.22, an NF-κB luciferase activity relative to LPS-treated group (HEK293 [2]) of 0.05 and an RLU (HEK293 [3]) of 0.19.

In the case of `C[C@]12CCC(=O)C=C1CC[C@@H]1[C@@H]2[C@@H](O)C[C@@]2(C)[C@H]1CC[C@]2(O)C(=O)CO`, the NF-κB luciferase activity relative to LPS-treated group (HEK293 [1]) is reported as 0.45, the NF-κB luciferase activity relative to LPS-treated group (HEK293 [2]) is reported as 0.26 and the RLU (HEK293 [3]) is reported as 0.32.

Compound `COC(=O)C1=CO[C@@H](O[C@@H]2O[C@H](CO)[C@@H](O)[C@H](O)[C@H]2O)[C@H]2[C@@H]1[C@H](O)C[C@]2(C)O` has an NF-κB luciferase activity relative to LPS-treated group (HEK293 [1]) of 0.31, an NF-κB luciferase activity relative to LPS-treated group (HEK293 [2]) of 0.39 and an RLU (HEK293 [3]) of 0.21.

`COC(=O)C1=CO[C@@H](O[C@@H]2O[C@H](CO)[C@@H](O)[C@H](O)[C@H]2O)[C@H]2[C@@H]1[C@H](OC(=O)c1cc(OC)c(O)c(OC)c1)C[C@]2(C)OC(C)=O` showed an NF-κB luciferase activity relative to LPS-treated group (HEK293 [1]) of 0.42, an NF-κB luciferase activity relative to LPS-treated group (HEK293 [2]) of 0.12 and an RLU (HEK293 [3]) of 0.08.

In the case of `COC(=O)C1=CO[C@@H](O[C@@H]2O[C@H](CO)[C@@H](O)[C@H](O)[C@H]2O)[C@H]2[C@@H]1[C@H](O)[C@H](O)[C@]2(C)O`, the NF-κB luciferase activity relative to LPS-treated group (HEK293 [1]) is reported as 0.41, the NF-κB luciferase activity relative to LPS-treated group (HEK293 [2]) is reported as 0.23 and the RLU (HEK293 [3]) is reported as 0.19.

In the case of `C=C1C[C@@H](O)[C@@H]2C(C(=O)OC)=CO[C@@H](O[C@@H]3O[C@H](CO)[C@@H](O)[C@H](O)[C@H]3O)[C@H]12`, the NF-κB luciferase activity relative to LPS-treated group (HEK293 [1]) is reported as 0.4, the NF-κB luciferase activity relative to LPS-treated group (HEK293 [2]) is reported as 0.26 and the RLU (HEK293 [3]) is reported as 0.43.

In the case of `COC(=O)C1=CO[C@@H](O[C@@H]2O[C@H](CO)[C@@H](O)[C@H](O)[C@H]2O)[C@@H]2[C@H](C)CC[C@H]12`, the inhibition (HEK293 [4]) is reported as “Dose-dependent effect”, the NF-κB luciferase activity relative to LPS-treated group (HEK293 [1]) is reported as 0.62 and the NF-κB luciferase activity relative to LPS-treated group (HEK293 [2]) is reported as 0.23. The RLU (HEK293 [3]) was 0.44.

`COC(=O)C1=CO[C@@H](O[C@@H]2O[C@H](CO)[C@@H](O)[C@H](O)[C@H]2O)[C@H]2[C@@H]1[C@H](O)C[C@]2(C)OC(C)=O` showed an NF-κB luciferase activity relative to LPS-treated group (HEK293 [1]) of 0.34, an NF-κB luciferase activity relative to LPS-treated group (HEK293 [2]) of 0.13 and an RLU (HEK293 [3]) of 0.4.

For `C=CC(C)(O)CC/C=C(\C)C(=O)O[C@@H]1C[C@](C)(OC(C)=O)[C@H]2[C@H](O[C@@H]3O[C@H](CO)[C@@H](O)[C@H](O)[C@H]3O)OC=C(C(=O)OC)[C@H]21` (stereo partly specified), the NF-κB luciferase activity relative to LPS-treated group (HEK293 [1]) was 0.31, the NF-κB luciferase activity relative to LPS-treated group (HEK293 [2]) was 0.25 and the RLU (HEK293 [3]) was 0.21.

`COC(=O)C1=CO[C@@H](O[C@@H]2O[C@H](CO)[C@@H](O)[C@H](O)[C@H]2O)[C@H]2[C@@H]1[C@H](O)[C@H](O)[C@@]2(C)O` was tested, and the NF-κB luciferase activity relative to LPS-treated group (HEK293 [1]) was 0.38, the NF-κB luciferase activity relative to LPS-treated group (HEK293 [2]) was 0.37 and the RLU (HEK293 [3]) was 0.15.

With `COC(=O)C1=CO[C@@H](O[C@@H]2O[C@H](CO)[C@@H](O)[C@H](O)[C@H]2O)[C@@H]2[C@@](C)(O)[C@@H](O)[C@@H](O)[C@]12O` the NF-κB luciferase activity relative to LPS-treated group (HEK293 [1]) was 0.49, the NF-κB luciferase activity relative to LPS-treated group (HEK293 [2]) was 0.56 and the RLU (HEK293 [3]) was 0.34.

For `COC(=O)C1=CO[C@@H](O[C@@H]2O[C@H](CO)[C@@H](O)[C@H](O)[C@H]2O)[C@@H]2[C@@]3(C)O[C@H]3[C@@H](O)[C@]12O`, the NF-κB luciferase activity relative to LPS-treated group (HEK293 [1]) was 0.36, the NF-κB luciferase activity relative to LPS-treated group (HEK293 [2]) was 0.15 and the RLU (HEK293 [3]) was 0.14.

With `CCCCO[C@@H]1C=C(C)[C@H]2[C@H](O[C@@H]3O[C@H](CO)[C@@H](O)[C@H](O)[C@H]3O)OC=C(C(=O)OC)[C@H]21` the inhibition (HEK293 [4]) was “Dose-dependent effect”, the NF-κB luciferase activity relative to LPS-treated group (HEK293 [1]) was 0.48 and the NF-κB luciferase activity relative to LPS-treated group (HEK293 [2]) was 0.15. It also gave an RLU (HEK293 [3]) of 0.38.

For `COC(=O)C1=CO[C@@H](O[C@@H]2O[C@H](CO)[C@@H](O)[C@H](O)[C@H]2O)[C@@H]2[C@H](C)[C@@H](O)C[C@H]12`, the NF-κB luciferase activity relative to LPS-treated group (HEK293 [1]) was 0.26, the NF-κB luciferase activity relative to LPS-treated group (HEK293 [2]) was 0.14 and the RLU (HEK293 [3]) was 0.13.

`COC(=O)C1=CO[C@@H](O[C@@H]2O[C@H](CO)[C@@H](O)[C@H](O)[C@H]2O)[C@@H]2C(C)=C[C@@H](O)[C@H]12` gave an NF-κB luciferase activity relative to LPS-treated group (HEK293 [1]) of 0.68, an NF-κB luciferase activity relative to LPS-treated group (HEK293 [2]) of 0.5 and an RLU (HEK293 [3]) of 0.59.

Work on `COC(=O)C1=CO[C@@H](O[C@@H]2O[C@H](CO)[C@@H](O)[C@H](O)[C@H]2O)[C@@H]2[C@@H](C)[C@@H](O)C[C@H]12` yielded an NF-κB luciferase activity relative to LPS-treated group (HEK293 [1]) of 0.56, an NF-κB luciferase activity relative to LPS-treated group (HEK293 [2]) of 0.66 and an RLU (HEK293 [3]) of 0.56.

Work on `COC(=O)C1=CO[C@@H](O[C@@H]2O[C@H](COC(=O)c3cc(OC)c(O)c(OC)c3)[C@@H](O)[C@H](O)[C@H]2O)[C@H]2[C@@H]1[C@H](O)[C@@H]1O[C@]21C` yielded an NF-κB luciferase activity relative to LPS-treated group (HEK293 [1]) of 0.48, an NF-κB luciferase activity relative to LPS-treated group (HEK293 [2]) of 0.55 and an RLU (HEK293 [3]) of 0.32.

Compound `COC(=O)C1=CO[C@@H](O[C@@H]2O[C@H](CO)[C@@H](O)[C@H](O)[C@H]2O)[C@H]2[C@@H]1[C@H](OC(C)=O)C[C@]2(C)O` has an NF-κB luciferase activity relative to LPS-treated group (HEK293 [1]) of 0.11, an NF-κB luciferase activity relative to LPS-treated group (HEK293 [2]) of 0.06 and an RLU (HEK293 [3]) of 0.13.

With `COC(=O)C1=CO[C@@H](O[C@@H]2O[C@H](CO)[C@@H](O)[C@H](O)[C@H]2O)[C@H]2[C@@H]1[C@H](O)[C@@H]1O[C@]21C` the NF-κB luciferase activity relative to LPS-treated group (HEK293 [1]) was 0.42, the NF-κB luciferase activity relative to LPS-treated group (HEK293 [2]) was 0.23 and the RLU (HEK293 [3]) was 0.46.

For `COC(=O)C1=CO[C@@H](O[C@@H]2O[C@H](CO)[C@@H](O)[C@H](O)[C@H]2O)[C@@H]2C(C)=C[C@@H](O)[C@]12O`, the inhibition (HEK293 [4]) was “Dose-dependent effect”, the NF-κB luciferase activity relative to LPS-treated group (HEK293 [1]) was 0.24 and the NF-κB luciferase activity relative to LPS-treated group (HEK293 [2]) was 0.06. For the same compound, the RLU (HEK293 [3]) was 0.18.
